# Residues, ends and D or L forms follow the SMILES beside them.
# Columns and labels:
# E. coli ATCC 25922 = assay: microbe, parasite or virus in culture; details: for MIC: Escherichia coli, ATCC25922; for MIC after 14th passage: 14 daily passages at one-half MIC, 18 h
# Experimental: Escherichia coli ATCC 25922 was purchased from the American Type Culture Collection (ATCC) (Manassas, Virginia, USA) and stored at −80°C as glycerol stock until use. Bacterial cultures were grown overnight in sterile Müller–Hinton broth (MHB) (Difco Inc.) at 37°C under agitation (140 r.p.m.). The next day, the cultures were diluted 1 : 30 in new MHB and incubated as described above for about 2 h (mean logarithmic phase) until they reached an optical density at 600 nm of about 0.3 and then diluted in fresh MHB to the desired concentrations.
# The effects of human serum on the antimicrobial activity of B7-005 were assessed by performing a minimum inhibitory concentration (MIC) assay with some modifications. Non-heat-inactivated human serum (Merk Life Science S.r.l., USA) was diluted to 50%, 40%, 30%, 25%, and 20% (v/v) in MHB and the solutions were aliquoted into the wells of a round-bottomed 96-well microtitre plate (Sarstedt, Milan, Italy). Samples with no serum were used for comparison. B7-005 was diluted in MHB added with the proper amount of serum to a concentration of 128 μM, added to the first column of the plate and serially diluted twofold in MHB, added with the proper amount of serum, in the subsequent wells in a final volume of 50 μl. Then 50 μl of a mid-log suspension of 5 × 10^5 CFU ml^−1 E. coli ATCC 25922 cells prepared in MHB added with the proper amount of serum was added to each well of the plate, halving the final concentration of bacteria and peptide. The plate was incubated at 37°C for 18 h. The MIC value was calculated as the lowest concentration of the compound resulting in complete inhibition of visible bacterial growth. MIC values were determined by performing at least three independent experiments (n ≥ 3).
# The resistance selection assay was performed by modifying a previously described method. First, the MIC values of each antimicrobial compound (PrAMP or antibiotic) against E. coli ATCC 25922 were determined and recorded as described above. Serial sub-culturing was started by harvesting bacterial cells growing at one-half MIC and inoculating them into fresh MHB. […] This inoculum was incubated o/n and subjected to another MIC test. After 18 h of incubation, the cells growing at one-half MIC were harvested and used for another similar MIC assay. The process was repeated for 7 or 14 daily passages.
# [1] = test system: zebrafish larvae infection model; details: simultaneous injection of pathogens and peptide versus post-infection administration; ref [40]; cited from earlier work
# Description: In the current work, the infection of zebrafish larvae with E. coli and their treatment with B7-005 were strictly controlled performing them by microinjection in the Cuvier duct. […] To better ...
compound,measurement,setting,value
colistin,MIC during serial passaging,E. coli ATCC 25922; throughout the complete serial passaging process,remained substantially unchanged
CO[C@H]1/C=C/O[C@@]2(C)Oc3c(C)c(O)c4c(O)c(c(/C=N/N5CCN(C)CC5)c(O)c4c3C2=O)NC(=O)/C(C)=C\C=C\[C@H](C)[C@H](O)[C@@H](C)[C@@H](O)[C@@H](C)[C@H](OC(C)=O)[C@@H]1C [rifampicin],MIC,E. coli ATCC 25922,1020 µM
same,fold increase in MIC,E. coli ATCC 25922; after 4 passages at one-half MIC,64 fold
CC[C@H](C)[C@H](NC(=O)[C@H](CCCNC(=N)N)NC(=O)[C@@H](N)CCCNC(=N)N)C(=O)N[C@@H](CCCNC(=N)N)C(=O)N1CCC[C@H]1C(=O)N[C@@H](CCCNC(=N)N)C(=O)N1CCC[C@H]1C(=O)N1CCC[C@H]1C(=O)N[C@@H](CCCNC(=N)N)C(=O)N[C@@H](CC(C)C)C(=O)N1CCC[C@H]1C(=O)N[C@@H](CCCNC(=N)N)C(=O)N1CCC[C@H]1C(=O)N[C@@H](CCCNC(=N)N)C(=O)N1CCC[C@H]1C(=O)N[C@@H](CCCNC(=N)N)C(=O)O [Bac7(1-16)] (H-RRIRPRPPRLPRPRPR-OH),MIC after 14th passage,E. coli ATCC 25922; MHB,128 µM
"Bac5: another PrAMP previously used in a zebrafish larvae infection model (RFRPPIRRPPIRPPFYPPFRPPIRPPIFPPIRPPFRPPLGPFP; Bactenecin 5; UniProt P19660 131-173, looked up)",efficacy in zebrafish larvae infection model,[1],only effective when the pathogens and peptide were simultaneously injected
O=C(N[C@H](CO)[C@H](O)c1ccc([N+](=O)[O-])cc1)C(Cl)Cl [chloramphenicol],MIC,E. coli ATCC 25922,1020 µM
same,fold increase in MIC,E. coli ATCC 25922; after 8 passages at one-half MIC,64 fold
CC[C@H](C)[C@H](NC(=O)[C@H](CCCNC(=N)N)NC(=O)[C@@H](N)CCCNC(=N)N)C(=O)N[C@@H](CCCNC(=N)N)C(=O)N1CCC[C@H]1C(=O)N[C@@H](CCCNC(=N)N)C(=O)N1CCC[C@H]1C(=O)N1CCC[C@H]1C(=O)N[C@@H](CCCNC(=N)N)C(=O)N[C@@H](CC(C)C)C(=O)N1CCC[C@H]1C(=O)N[C@@H](CCCNC(=N)N)C(=O)N1CCC[C@H]1C(=O)N[C@@H](CCCNC(=N)N)C(=O)N1CCC[C@H]1C(=O)N[C@@H](CCCNC(=N)N)C(=O)N1CCC[C@H]1C(=O)N[C@@H](CC(C)C)C(=O)N1CCC[C@H]1C(=O)N[C@@H](Cc1ccccc1)C(=O)N1CCC[C@H]1C(=O)N[C@@H](CCCNC(=N)N)C(=O)N1CCC[C@H]1C(=O)NCC(=O)N1CCC[C@H]1C(=O)N[C@@H](CCCNC(=N)N)C(=O)N1CCC[C@H]1C(=O)N[C@H](C(=O)N1CCC[C@H]1C(=O)N[C@@H](CCCNC(=N)N)C(=O)N1CCC[C@H]1C(=O)N[C@@H](CC(C)C)C(=O)N1CCC[C@H]1C(=O)N[C@@H](Cc1ccccc1)C(=O)N1CCC[C@H]1C(=O)O)[C@@H](C)CC [Bac7(1-35)] (H-RRIRPRPPRLPRPRPRPLPFPRPGPRPIPRPLPFP-OH; N-terminus and C-terminus assumed),MIC after 14th passage,E. coli ATCC 25922; MHB,128 µM
same,passage (cycle) after which MIC started to increase,"E. coli ATCC 25922; serial passages at one-half MIC, MHB",5

# Reference: publication PMC11614538, “The proline-rich antimicrobial peptide B7-005: low bacterial resistance, safe for human cells and effective in zebrafish embryo bacteraemia model” (Open Biology, 2024)
